Assay results from publication PMC10804372, “Degradation by Design: New Cyclin K Degraders from Old CDK Inhibitors” (ACS Chemical Biology, 2024).

Experiments:
Cyclin K [1] = test: Cyclin K levels by Western blot after single-concentration treatment; type: cell-based, human; details: HEK293T cells, 1 μM for 2 h, quantified from Western blots, mean ± SD, three independent experiments
Outline: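 Cyclin K quantified by Western blot of HEK293T lysates after a single compound concentration, with ImageJ densitometry normalized to GAPDH. Cells grown in DMEM/10% FBS at 37 °C, 5% CO2.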

HEK293T cells = test: Proteome-wide quantitation by mass spectrometry (TMT); type: cell-based, human; details: for log2FC compound 41: 1uM, 2h
Cyclin K [2] = test: Cyclin K degradation concentration-response (DC50, DMax) by Western blot; type: cell-based, human; details: HEK293T, Western blot quantification, 3 biological repeats
Outline: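 HEK293T cells treated across a concentration range; lysates immunoblotted for Cyclin K with GAPDH as loading control, ECL detection. Band intensities quantified, Cyclin K normalized to GAPDH, and DC50 derived by 4-parameter nonlinear regression of concentration–response curves.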

CDK12 = target: T1, CDK12 (Homo sapiens, UniProt Q9NYV4); test: KINOMEscan binding assay (Eurofins DiscoverX); details: KINOMEscan
T1 construct: purchased Eurofins DiscoverX (KINOMEscan service)
T1 sequence (Q9NYV4 whole entry): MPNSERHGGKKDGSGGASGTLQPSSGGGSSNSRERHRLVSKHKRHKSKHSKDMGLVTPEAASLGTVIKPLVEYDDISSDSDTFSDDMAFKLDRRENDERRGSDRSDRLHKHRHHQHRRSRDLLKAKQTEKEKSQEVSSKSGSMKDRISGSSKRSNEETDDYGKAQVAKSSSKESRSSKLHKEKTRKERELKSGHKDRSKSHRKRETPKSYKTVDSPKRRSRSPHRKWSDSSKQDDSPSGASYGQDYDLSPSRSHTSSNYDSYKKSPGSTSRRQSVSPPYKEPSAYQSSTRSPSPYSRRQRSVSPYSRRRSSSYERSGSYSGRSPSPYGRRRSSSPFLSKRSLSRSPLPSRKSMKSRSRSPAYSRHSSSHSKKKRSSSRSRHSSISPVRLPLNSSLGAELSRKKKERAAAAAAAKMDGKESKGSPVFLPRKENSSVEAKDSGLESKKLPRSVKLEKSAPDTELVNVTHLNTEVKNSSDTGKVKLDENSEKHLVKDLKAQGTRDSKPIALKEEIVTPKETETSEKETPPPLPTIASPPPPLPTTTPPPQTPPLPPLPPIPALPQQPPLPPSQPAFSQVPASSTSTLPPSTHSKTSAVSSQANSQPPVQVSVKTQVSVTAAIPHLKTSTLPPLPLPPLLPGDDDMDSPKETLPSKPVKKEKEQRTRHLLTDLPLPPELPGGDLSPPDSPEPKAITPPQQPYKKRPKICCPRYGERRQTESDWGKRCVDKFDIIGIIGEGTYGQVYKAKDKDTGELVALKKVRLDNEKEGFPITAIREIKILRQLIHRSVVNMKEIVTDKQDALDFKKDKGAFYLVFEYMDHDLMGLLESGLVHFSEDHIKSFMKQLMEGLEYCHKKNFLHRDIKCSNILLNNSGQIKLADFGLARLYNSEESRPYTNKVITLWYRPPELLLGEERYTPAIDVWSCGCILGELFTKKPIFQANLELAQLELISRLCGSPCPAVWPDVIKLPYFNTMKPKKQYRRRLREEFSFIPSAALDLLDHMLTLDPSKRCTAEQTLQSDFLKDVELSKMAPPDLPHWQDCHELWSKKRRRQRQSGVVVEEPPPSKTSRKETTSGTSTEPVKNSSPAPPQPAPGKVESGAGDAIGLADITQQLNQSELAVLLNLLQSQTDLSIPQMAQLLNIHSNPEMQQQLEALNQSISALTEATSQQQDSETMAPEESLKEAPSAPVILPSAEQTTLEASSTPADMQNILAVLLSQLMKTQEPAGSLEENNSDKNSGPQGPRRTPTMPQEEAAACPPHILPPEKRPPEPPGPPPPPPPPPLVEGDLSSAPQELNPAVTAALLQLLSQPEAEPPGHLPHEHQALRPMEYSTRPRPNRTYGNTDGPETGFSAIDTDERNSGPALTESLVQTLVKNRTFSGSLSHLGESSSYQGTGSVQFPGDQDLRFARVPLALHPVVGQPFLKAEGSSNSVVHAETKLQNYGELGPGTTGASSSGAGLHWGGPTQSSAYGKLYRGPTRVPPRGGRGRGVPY

O=C(NCc1ccc(C2=CCOCC2)cc1)c1n[nH]cc1NC(=O)c1c(Cl)cccc1Cl [compound 41]
Remaining Cyclin K (%) (Cyclin K [1]): 3 ± 1% | log2FC compound 41 (HEK293T cells): 1.1108 | number of proteins showing at least a −0.5 log2 fold change (HEK293T cells; HEK293T, 1 μM, 2 h treatment): 33 proteins | log2FC compound 41 (HEK293T cells; protein AKR7A2 (Aflatoxin B1 aldehyde reductase member 2, O43488)): -0.7339 | log2FC compound 41 (HEK293T cells; protein ALG10 (Dol-P-Glc:Glc(2)Man(9)GlcNAc(2)-PP-Dol alpha-1,2-glucosyltransferase, Q5BKT4)): 0.9798 | log2FC compound 41 (HEK293T cells; protein ALKBH2 (DNA oxidative demethylase ALKBH2, Q6NS38)): 0.728 | log2FC compound 41 (HEK293T cells; protein ARF4 (ADP-ribosylation factor 4, P18085)): 0.7714 | log2FC compound 41 (HEK293T cells; protein ATP6AP1 (V-type proton ATPase subunit S1, Q15904)): 0.6251 | log2FC compound 41 (HEK293T cells; protein B3GLCT (Beta-1,3-glucosyltransferase, Q6Y288)): 0.6029 | log2FC compound 41 (HEK293T cells; protein BTF3L4 (Transcription factor BTF3 homolog 4, Q96K17)): 0.5924 | log2FC compound 41 (HEK293T cells; protein C1orf167 (Uncharacterized protein C1orf167, Q5SNV9)): 1.3705 | log2FC compound 41 (HEK293T cells; protein CCNK (Cyclin-K, O75909)): -1.4213 | log2FC compound 41 (HEK293T cells; protein CD9 (CD9 antigen, P21926)): 0.6995 | log2FC compound 41 (HEK293T cells; protein CD59 (CD59 glycoprotein, P13987)): 1.3635 | log2FC compound 41 (HEK293T cells; protein CD63 (CD63 antigen, P08962)): 1.3469 | log2FC compound 41 (HEK293T cells; protein CD151 (CD151 antigen, P48509)): 0.7942 | log2FC compound 41 (HEK293T cells; protein CDKL5 (Cyclin-dependent kinase-like 5, O76039)): 1.2994 | log2FC compound 41 (HEK293T cells; protein CENPW (Centromere protein W, Q5EE01)): 0.6212 | log2FC compound 41 (HEK293T cells; protein CERS1 (Ceramide synthase 1, P27544)): 0.5956 | log2FC compound 41 (HEK293T cells; protein CHCHD1 (Coiled-coil-helix-coiled-coil-helix domain-containing protein 1, Q96BP2)): -0.843 | log2FC compound 41 (HEK293T cells; protein CHCHD2 (Coiled-coil-helix-coiled-coil-helix domain-containing protein 2, Q9Y6H1)): -0.961 | log2FC compound 41 (HEK293T cells; protein CNOT8 (CCR4-NOT transcription complex subunit 8, Q9UFF9)): 0.5912 | log2FC compound 41 (HEK293T cells; protein COA7 (Cytochrome c oxidase assembly factor 7, Q96BR5)): -0.7413 | log2FC compound 41 (HEK293T cells; protein COPRS (Coordinator of PRMT5 and differentiation stimulator, Q9NQ92)): 0.7957 | log2FC compound 41 (HEK293T cells; protein COX6B1 (Cytochrome c oxidase subunit 6B1, P14854)): 0.7689 | log2FC compound 41 (HEK293T cells; protein COX7A2 (Cytochrome c oxidase subunit 7A2, mitochondrial, P14406)): -1.7055 | log2FC compound 41 (HEK293T cells; protein CSNK2B (Casein kinase II subunit beta, P67870)): 0.62 | log2FC compound 41 (HEK293T cells; protein CTSV (Cathepsin L2, O60911)): 0.7835 | log2FC compound 41 (HEK293T cells; protein DCDC1 (Doublecortin domain-containing protein 1, M0R2J8)): 1.8264 | log2FC compound 41 (HEK293T cells; protein DHX58 (Probable ATP-dependent RNA helicase DHX58, Q96C10)): 1.0451 | log2FC compound 41 (HEK293T cells; protein DNAJC5 (DnaJ homolog subfamily C member 5, Q9H3Z4)): 0.994 | log2FC compound 41 (HEK293T cells; protein DNPEP (Aspartyl aminopeptidase, Q9ULA0)): 0.6304 | log2FC compound 41 (HEK293T cells; protein DYNLL1 (Dynein light chain 1, cytoplasmic, P63167)): -0.6985 | log2FC compound 41 (HEK293T cells; protein ECI1 (Enoyl-CoA delta isomerase 1, mitochondrial, P42126)): 0.8277 | log2FC compound 41 (HEK293T cells; protein EI24 (Etoposide-induced protein 2.4 homolog, O14681)): 0.8122 | log2FC compound 41 (HEK293T cells; protein EIF5A2 (Eukaryotic translation initiation factor 5A-2, Q9GZV4)): 1.4183 | log2FC compound 41 (HEK293T cells; protein ELP5 (Elongator complex protein 5, Q8TE02)): 0.6971 | log2FC compound 41 (HEK293T cells; protein ERGIC3 (Endoplasmic reticulum-Golgi intermediate compartment protein 3, Q9Y282)): -0.6608 | log2FC compound 41 (HEK293T cells; protein FAM219A (Protein FAM219A, Q8IW50)): 0.6921 | log2FC compound 41 (HEK293T cells; protein FAM234A (Protein FAM234A, Q9H0X4)): 0.9598 | log2FC compound 41 (HEK293T cells; protein GGH (Gamma-glutamyl hydrolase, Q92820)): 0.639 | log2FC compound 41 (HEK293T cells; protein GNA15 (Guanine nucleotide-binding protein subunit alpha-15, P30679)): 1.1022 | log2FC compound 41 (HEK293T cells; protein GYG2 (Glycogenin-2, O15488)): 0.8256 | log2FC compound 41 (HEK293T cells; protein H2AC6 (Histone H2A type 1-C, Q93077)): -2.3143 | log2FC compound 41 (HEK293T cells; protein H2AC14 (Histone H2A type 1-J, Q99878)): -2.3989 | log2FC compound 41 (HEK293T cells; protein HMGN2 (Non-histone chromosomal protein HMG-17, P05204)): -0.8432 | log2FC compound 41 (HEK293T cells; protein HNRNPA2B1 (Heterogeneous nuclear ribonucleoproteins A2/B1, P22626)): -0.5885 | log2FC compound 41 (HEK293T cells; protein HSPB11 (Intraflagellar transport protein 25 homolog, Q9Y547)): 0.7236 | log2FC compound 41 (HEK293T cells; protein KCTD1 (BTB/POZ domain-containing protein KCTD1, Q719H9)): 0.9367 | log2FC compound 41 (HEK293T cells; protein KIAA0930 (Uncharacterized protein KIAA0930, Q6ICG6)): 0.6862 | log2FC compound 41 (HEK293T cells; protein KIAA1549 (UPF0606 protein KIAA1549, Q9HCM3)): 0.7226 | log2FC compound 41 (HEK293T cells; protein LIPA (Lysosomal acid lipase/cholesteryl ester hydrolase, P38571)): 0.766 | log2FC compound 41 (HEK293T cells; protein LIPT2 (Putative lipoyltransferase 2, mitochondrial, A6NK58)): -0.7183 | log2FC compound 41 (HEK293T cells; protein LPCAT3 (Lysophospholipid acyltransferase 5, Q6P1A2)): 1.5824 | log2FC compound 41 (HEK293T cells; protein LPIN2 (Phosphatidate phosphatase LPIN2, Q92539)): 0.7762 | log2FC compound 41 (HEK293T cells; protein LSM1 (U6 snRNA-associated Sm-like protein LSm1, O15116)): 1.1318 | log2FC compound 41 (HEK293T cells; protein MEIS1 (Homeobox protein Meis1, O00470)): -0.7006 | log2FC compound 41 (HEK293T cells; protein MGARP (Protein MGARP, Q8TDB4)): 0.8294 | log2FC compound 41 (HEK293T cells; protein MKRN1 (E3 ubiquitin-protein ligase makorin-1, Q9UHC7)): 0.6085 | log2FC compound 41 (HEK293T cells; protein MRPL24 (39S ribosomal protein L24, mitochondrial, Q96A35)): -0.8105 | log2FC compound 41 (HEK293T cells; protein MSMO1 (Methylsterol monooxygenase 1, Q15800)): 0.6949 | log2FC compound 41 (HEK293T cells; protein MT-ND4 (NADH-ubiquinone oxidoreductase chain 4, P03905)): 0.7038 | log2FC compound 41 (HEK293T cells; protein NCBP2AS2 (Protein NCBP2AS2, Q69YL0)): -0.5975 | log2FC compound 41 (HEK293T cells; protein NIPA2 (Magnesium transporter NIPA2, Q8N8Q9)): 0.8891 | log2FC compound 41 (HEK293T cells; protein NSMCE4A (Non-structural maintenance of chromosomes element 4 homolog A, Q9NXX6)): 0.6459 | log2FC compound 41 (HEK293T cells; protein NXT2 (NTF2-related export protein 2, Q9NPJ8)): 1.4453 | log2FC compound 41 (HEK293T cells; protein ORC4 (Origin recognition complex subunit 4, O43929)): 0.6334 | log2FC compound 41 (HEK293T cells; protein OSTC (Oligosaccharyltransferase complex subunit OSTC, Q9NRP0)): 0.6129 | log2FC compound 41 (HEK293T cells; protein POP5 (Ribonuclease P/MRP protein subunit POP5, Q969H6)): 0.6256 | log2FC compound 41 (HEK293T cells; protein PPP1CB (Serine/threonine-protein phosphatase PP1-beta catalytic subunit, P62140)): -0.8644 | log2FC compound 41 (HEK293T cells; protein PRPF38A (Pre-mRNA-splicing factor 38A, Q8NAV1)): 0.6341 | log2FC compound 41 (HEK293T cells; protein RBX1 (E3 ubiquitin-protein ligase RBX1, P62877)): 0.6251 | log2FC compound 41 (HEK293T cells; protein RER1 (Protein RER1, O15258)): 0.5922 | log2FC compound 41 (HEK293T cells; protein RPS29 (40S ribosomal protein S29, P62273)): -1.1057 | log2FC compound 41 (HEK293T cells; protein SDHAF4 (Succinate dehydrogenase assembly factor 4, mitochondrial, Q5VUM1)): 0.8419 | log2FC compound 41 (HEK293T cells; protein SEC11C (Signal peptidase complex catalytic subunit SEC11C, Q9BY50)): -0.5851 | log2FC compound 41 (HEK293T cells; protein SERINC3 (Serine incorporator 3, Q13530)): 0.6778 | log2FC compound 41 (HEK293T cells; protein SIAE (Sialate O-acetylesterase, Q9HAT2)): 0.753 | log2FC compound 41 (HEK293T cells; protein SLC25A17 (Peroxisomal membrane protein PMP34, O43808)): 1.1015 | log2FC compound 41 (HEK293T cells; protein SLC44A2 (Choline transporter-like protein 2, Q8IWA5)): 1.0845 | log2FC compound 41 (HEK293T cells; protein SPCS1 (Signal peptidase complex subunit 1, Q9Y6A9)): 0.6654 | log2FC compound 41 (HEK293T cells; protein STEAP2 (Metalloreductase STEAP2, Q8NFT2)): 0.6125 | log2FC compound 41 (HEK293T cells; protein SURF4 (Surfeit locus protein 4, O15260)): 0.8751 | log2FC compound 41 (HEK293T cells; protein TECR (Very-long-chain enoyl-CoA reductase, Q9NZ01)): 0.5914 | log2FC compound 41 (HEK293T cells; protein TMCC3 (Transmembrane and coiled-coil domain protein 3, Q9ULS5)): 0.6529 | log2FC compound 41 (HEK293T cells; protein TMED5 (Transmembrane emp24 domain-containing protein 5, Q9Y3A6)): 0.6722 | log2FC compound 41 (HEK293T cells; protein TMEM41A (Transmembrane protein 41A, Q96HV5)): 0.881 | log2FC compound 41 (HEK293T cells; protein TMSB4X (Thymosin beta-4, P62328)): -1.1542 | log2FC compound 41 (HEK293T cells; protein TVP23C (Golgi apparatus membrane protein TVP23 homolog C, Q96ET8)): 0.698 | log2FC compound 41 (HEK293T cells; protein UBE2R2 (Ubiquitin-conjugating enzyme E2 R2, Q712K3)): -0.7129 | log2FC compound 41 (HEK293T cells; protein WHAMM (WASP homolog-associated protein with actin, membranes and microtubules, Q8TF30)): -0.8329 | log2FC compound 41 (HEK293T cells; protein XPOT (Exportin-T, O43592)): 0.6641 | log2FC compound 41 (HEK293T cells; protein ZBTB17 (Zinc finger and BTB domain-containing protein 17, Q13105)): 1.0947 | DMax (%) (Cyclin K [2]): >95% | DC50 (Cyclin K [2]; read-out: CycK DC50): 141 nM | Kd (CDK12): 3.8 µM
